This is an account of results in US20070021509A1, “Phosphate transport inhibitors” (priority 2001, published 2007).

The structures appear in SMILES notation.

In one test the test system is phosphate uptake by rabbit intestinal Brush Border Membrane Vesicles (BBMV). The test is described as follows: 33PO4 uptake in rabbit intestinal BBMV (HTS), phosphate transporter inhibition in vitro. The format is biochemical. To be noted: Table 8, 100 μM compound. The method in brief:
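BBMV from duodenal mucosa of male New Zealand White rabbits, diluted to about 0.5-2.0 mg/mL protein. Uptake buffers carried 33PO4 at 200,000 CPM/19 μL. Controls: Na uptake buffer (max), plus 100 μM KH2PO4 pH 7.4 (mid), K uptake buffer (min).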
As for `CCOP(=O)(OCC)c1cc(Br)ccc1NC(=O)c1ccc(OC)c(OC)c1` [Compound 248], the “% Inhib. at 100 μM” value amounted to 48%.

The test is the same for the next values; noted with them: Table 9, 100 μM compound.
Take `O=C(/C=C/c1ccc(Br)cc1)c1cc(Cl)cc(Cl)c1O` [Compound 249]: the “% Inhib. at 100 μM” value was 50%.

Still in this test, the particulars now being: Table 10, phosphate uptake, read-out: IC50.
For orientation: IC50 means the midpoint of a concentration-inhibition curve. As to `CCOP(=O)(OCC)c1cc(Br)ccc1NC(=O)c1ccc(OC(F)(F)F)cc1` [Compound 250], the IC50 is less than 50 µM.

In the case of `O=C(Nc1ccc(Br)cc1)c1cc(Br)cc(Br)c1O` [Compound 251], the IC50 is 51 to 100 µM.

Turning to `O=C(Nc1ccc(Cl)c(Cl)c1)c1cc(Cl)cc(Cl)c1O` [Compound 252], the IC50 lay in the range of 51 to 100 µM.

With `O=C(Nc1ccc(Br)cc1)c1cc(Br)cc(Br)c1O` [Compound 253], the IC50 was 101 to 500 µM.

With `O=C(Nc1ccc(Oc2ccc3ccccc3c2Br)c(Cl)c1)c1cc(Br)cc(Br)c1O` [Compound 254], the IC50 lay in the range of 101 to 500 µM.

On to `O=C(Nc1ccc(Cl)cc1)c1cc(Br)cc(Br)c1O` [Compound 255], for which the IC50 was in the range of 101 to 500 µM.

Consider `O=C(Nc1cc(C(F)(F)F)ccc1C(F)(F)F)c1cc(Br)cc(Br)c1O` [Compound 256], for which the IC50 was 101 to 500 µM.

Turning to `COc1ccc(NC(=O)c2cc3ccc4c5ccccc5[nH]c4c3cc2O)cc1` [Compound 257], the IC50 fell in the range of 101 to 500 µM.

Regarding `O=C(Nc1ccc(Oc2ccc(Cl)c3ccccc23)c(Cl)c1)c1cc(Cl)cc(Cl)c1O` [Compound 258], the IC50 lay within 101 to 500 µM.

As for `CCOP(=O)(OCC)c1cc(Br)ccc1NC(=O)c1ccc(OC(F)(F)F)cc1` [Compound 259], the IC50 lay in the range of 101 to 500 µM.

`CCOP(=O)(OCC)c1cc(Br)ccc1NC(=O)c1ccc(F)cc1F` [Compound 260]: the IC50 fell in the range of 101 to 500 µM.

As to `O=C(Nc1ccc(Br)cc1C(=O)O)c1ccc(Cl)c([N+](=O)[O-])c1` [Compound 261], the IC50 lay in the range of 101 to 500 µM.

For `CCOP(=O)(OCC)c1cc(Br)ccc1NC(=O)c1cc(F)c(Cl)cc1Cl` [Compound 262], the IC50 was in the range of 101 to 500 µM.

Take `O=C(Nc1ccc(Br)cc1)c1cc(Br)cc(Br)c1OCCP(=O)(O)O` [Compound 263]: the IC50 lay within 101 to 500 µM.

`CCOP(=O)(OCC)c1cc(Br)ccc1NC(=O)c1cc(C(F)(F)F)ccc1C(F)(F)F` [Compound 264]: the IC50 fell in the range of 101 to 500 µM.

For `CCOP(=O)(OCC)c1cc(Br)ccc1NC(=O)c1cccc2ccccc12` [Compound 265], the IC50 lay within 501 to 1000 µM.

Turning to `O=C(Nc1ccc(Br)cc1)c1cc(Br)cc(Br)c1` [Compound 266], the half-inhibitory concentration (IC50) is 501 to 1000 µM.

For the compound `CCOP(=O)(OCC)c1cc(Br)ccc1NC(=O)c1ccc(Cl)c(Cl)c1` [Compound 267], the IC50 was in the range of 501 to 1000 µM.

Consider `O=C(Nc1ccc(Br)cc1P(=O)(O)O)c1ccc(OC(F)(F)F)cc1` [Compound 268], for which the IC50 was greater than 1500 µM.

On to `O=C(Nc1ccccc1)c1ccccc1P(=O)(O)O` [Compound 269], for which the IC50 was greater than 1500 µM.

As for `CCOP(=O)(OCC)c1cc(Br)ccc1NC(=O)c1c(Cl)cc(Cl)cc1Cl` [Compound 270], the IC50 was greater than 1500 µM.

Take `O=C(Nc1ccc(Br)cc1I)c1ccc(OC(F)(F)F)cc1` [Compound 271]: the IC50 was greater than 1500 µM.

As to `CCOP(=O)(OCC)c1cc(Br)ccc1NC(=O)c1ccc(OC(F)(F)F)cc1` [Compound 272], the IC50 was greater than 1500 µM.

The test is the same for the next values; noted with them: Table 11, phosphate uptake, read-out: IC50.
In the case of `O=C(CCc1ccc(O)cc1)c1c(O)cc(O)cc1O` [Compound 273], the IC50 was 501 to 1000 µM.

As to `O=C(/C=C/c1ccco1)c1cccc(O)c1` [Compound 274], the IC50 is 501 to 1000 µM.

For `COc1cccc(C(=O)/C=C/c2ccco2)c1` [Compound 275], the IC50 lay in the range of 501 to 1000 µM.

`O=C(/C=C/c1ccco1)c1cccc(Oc2ccccc2)c1` [Compound 276]: the IC50 lay within 501 to 1000 µM.

`O=C(/C=C/c1cccc(F)c1)c1cccc(O)c1` [Compound 277]: the IC50 is 501 to 1000 µM.

Take `COc1cccc(C(=O)/C=C/c2cccc(F)c2)c1` [Compound 278]: the IC50 is greater than 1500 µM.

In the case of `O=C(/C=C/c1cccc(F)c1)c1cccc(Oc2ccccc2)c1` [Compound 279], the IC50 was greater than 1500 µM.
